Molecules are shown by their SMILES. A value given as a limit tells only on which side of the number the result lay.

This assay is described as follows: Inhibition of EthR in Mycobacterium tuberculosis H37Rv-GFP infected in mouse Raw 264.7 cells assessed as compound concentration allowing 0.1 uM ethionamide to inhibit 50% microbial growth by automated fluorescent confocal microscopy.
For `COc1cccc(SCC(=O)Nc2ccc(-c3nc4ccccc4s3)cc2)c1`, the EC50 (commonly the midpoint of the concentration-response curve) is greater than 10 µM.
Next, `COc1cccc(OCC(=O)Nc2ccc(Cl)cc2)c1`: 1.6 µM; `Cc1ccc2cc(NC(=O)COc3ccccc3F)ccc2n1`: 2.2 µM; `N#Cc1cccc(OCC(=O)Nc2ccc(-c3nc4ccccc4s3)cc2)c1`: 0.34 µM.
The figure for `COc1cccc(OCC(=O)Nc2ccc(-c3nc4ccccc4s3)cc2)c1` is 0.21 µM; for `Cc1ccc(-n2nc3ccc(NC(=O)COc4ccccc4C)cc3n2)cc1` it is greater than 10 µM.

These data come from BindingDB's records for doi:10.1021/jm300377g (University of Lille, 2012).
